Experimental data published in ChEMBL document CHEMBL1201862, “PubChem BioAssay data set” (2004).
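Protocol summary: plate cells (96-well), add compound at 5 concentrations, incubate 48 h, interpolate endpoints linearly. The concentration for 50% growth inhibition is given as GI50.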 Calls of active or inactive are those of the source. Rule as the data show it: active = GI50 up to about 1.1 µM and inactive = higher.

Key:
Experiment in all cases: NCI anticancer screen, dose series, 48 h
[1] = system: HCC 2998
[2] = system: PC-3
[3] = system: IGROV-1
[4] = system: RXF 393
[5] = system: OVCAR-3
[6] = system: MDA-MB-231
[7] = system: SK-OV-3
[8] = system: TK-10
[9] = system: MCF7
[10] = system: NCI-H522
[11] = system: DU-145
[12] = system: M14
[13] = system: SN12C
[14] = system: COLO 205
[15] = system: UACC-62
[16] = system: SK-MEL-28
[17] = system: Malme-3M
[18] = system: SNB-75
[19] = system: OVCAR-8
[20] = system: OVCAR-4
[21] = system: LOX IMVI
[22] = system: A498
[23] = system: ACHN
[24] = system: 786-0
[25] = system: NCI-H460
[26] = system: SNB-19
[27] = system: HCT-15
[28] = system: HCT-116
[29] = system: SF-268
[30] = system: HOP-62
[31] = system: MOLT-4
[32] = system: SK-MEL-5
[33] = system: HT-29
[34] = system: UO-31
[35] = system: BT-549
[36] = system: SW-620
[37] = system: SR
[38] = system: Hs-578T
[39] = system: SF-295
[40] = system: RPMI-8226
[41] = system: MDA-MB-435
[42] = system: K562
[43] = system: CAKI-1
[44] = system: MDA-N
[45] = system: SK-MEL-2
[46] = system: NCI-H226
[47] = system: T47D
[48] = system: UACC-257
[49] = system: KM12
[50] = system: U-251
[51] = system: OVCAR-5
[52] = system: A549
[53] = system: CCRF-CEM
[54] = system: EKVX
[55] = system: NCI/ADR-RES
[56] = system: SF-539
[57] = system: NCI-H23
[58] = system: HL-60
[59] = system: HOP-92

O=c1onc2n1-c1ccc(Cl)cc1C(=S)N1CSCC21 (stereo not drawn)
GI50 [1]: 19.5 µM (inactive)
GI50 [2]: 31.4 µM (inactive)
GI50 [3]: 26.5 µM (inactive)
GI50 [4]: 33.6 µM (inactive)
GI50 [5]: 38.8 µM (inactive)
GI50 [6]: 19.5 µM (inactive)
GI50 [7]: 19.4 µM (inactive)
GI50 [8]: 70.5 µM (inactive)
GI50 [9]: 28.4 µM (inactive)
GI50 [10]: 21.9 µM (inactive)
GI50 [11]: 34.2 µM (inactive)
GI50 [12]: 11.1 µM (inactive)
GI50 [13]: 29.6 µM (inactive)
GI50 [14]: 18.4 µM (inactive)
GI50 [15]: 67.8 µM (inactive)
GI50 [16]: 52.5 µM (inactive)
GI50 [17]: 47.3 µM (inactive)
GI50 [18]: 30.4 µM (inactive)
GI50 [19]: 18.1 µM (inactive)
GI50 [20]: 59.2 µM (inactive)
GI50 [21]: 31.5 µM (inactive)
GI50 [22]: 23.1 µM (inactive)
GI50 [23]: 66.8 µM (inactive)
GI50 [24]: 23.1 µM (inactive)
GI50 [25]: 20.9 µM (inactive)
GI50 [26]: 22.3 µM (inactive)
GI50 [27]: 26.6 µM
GI50 [28]: 13.7 µM (inactive)
GI50 [29]: 25.8 µM (inactive)
GI50 [30]: 63.1 µM (inactive)
GI50 [31]: 30.1 µM (inactive)
GI50 [32]: 19.7 µM (inactive)
GI50 [33]: 24.5 µM (inactive)
GI50 [34]: 59 µM (inactive)
GI50 [35]: 20.5 µM (inactive)
GI50 [36]: 20.7 µM (inactive)
GI50 [37]: 15.9 µM (inactive)
GI50 [38]: 22.2 µM (inactive)
GI50 [39]: 17.5 µM (inactive)
GI50 [40]: 31.3 µM (inactive)
GI50 [41]: 9.46 µM (inactive)
GI50 [42]: 25.4 µM (inactive)
GI50 [43]: 64.1 µM (inactive)
GI50 [44]: 8.71 µM (inactive)
GI50 [45]: 25.1 µM (inactive)
GI50 [46]: 28.1 µM (inactive)
GI50 [47]: 35.7 µM (inactive)
GI50 [48]: > 100 µM (inactive)
GI50 [49]: 29.4 µM (inactive)
GI50 [50]: 18.2 µM (inactive)
GI50 [51]: 31.3 µM (inactive)
GI50 [52]: 34.8 µM (inactive)
GI50 [53]: 25.9 µM (inactive)
GI50 [54]: 29.6 µM (inactive)
GI50 [55]: 17.3 µM (inactive)

COC(=O)C1=C(C)NC(C)=C(C(=O)OC)C1c1ccc(/[N+]([O-])=C/c2ccccc2)cc1
GI50 [1]: > 100 µM (inactive)
GI50 [2]: 64.1 µM (inactive)
GI50 [3]: > 100 µM (inactive)
GI50 [4]: 19.7 µM (inactive)
GI50 [5]: 18.9 µM (inactive)
GI50 [6]: 41.1 µM (inactive)
GI50 [7]: > 100 µM (inactive)
GI50 [8]: 92.9 µM (inactive)
GI50 [9]: 16.7 µM (inactive)
GI50 [10]: 14.6 µM (inactive)
GI50 [11]: > 100 µM (inactive)
GI50 [12]: 18.1 µM (inactive)
GI50 [13]: 51.5 µM (inactive)
GI50 [14]: 19 µM (inactive)
GI50 [15]: 37.6 µM (inactive)
GI50 [56]: > 100 µM (inactive)
GI50 [16]: 18.7 µM (inactive)
GI50 [17]: 17.3 µM (inactive)
GI50 [18]: 34.9 µM (inactive)
GI50 [19]: 19.7 µM (inactive)
GI50 [20]: 17.3 µM (inactive)
GI50 [21]: 45 µM (inactive)
GI50 [23]: 17.4 µM (inactive)
GI50 [24]: 17.3 µM (inactive)
GI50 [25]: 66.8 µM (inactive)
GI50 [26]: 94.2 µM (inactive)
GI50 [27]: 42.5 µM
GI50 [57]: 42.5 µM (inactive)
GI50 [28]: 16.4 µM (inactive)
GI50 [29]: > 100 µM (inactive)
GI50 [30]: 83.2 µM (inactive)
GI50 [31]: 24.1 µM (inactive)
GI50 [32]: > 100 µM (inactive)
GI50 [33]: 48.9 µM (inactive)
GI50 [34]: 37.1 µM (inactive)
GI50 [35]: 18.8 µM (inactive)
GI50 [36]: 20 µM (inactive)
GI50 [37]: 24.1 µM (inactive)
GI50 [38]: 41.3 µM (inactive)
GI50 [39]: 46.9 µM (inactive)
GI50 [40]: 66.1 µM (inactive)
GI50 [41]: 30.4 µM (inactive)
GI50 [42]: 23.6 µM (inactive)
GI50 [43]: 18.7 µM (inactive)
GI50 [44]: 34.4 µM (inactive)
GI50 [58]: 15.1 µM (inactive)
GI50 [45]: > 100 µM (inactive)
GI50 [46]: 62.4 µM (inactive)
GI50 [47]: 19.8 µM (inactive)
GI50 [48]: 29.6 µM (inactive)
GI50 [49]: > 100 µM (inactive)
GI50 [50]: > 100 µM (inactive)
GI50 [51]: > 100 µM (inactive)
GI50 [52]: 96.6 µM (inactive)
GI50 [53]: 17 µM (inactive)
GI50 [59]: 20.8 µM (inactive)
GI50 [54]: 71.6 µM (inactive)
GI50 [55]: 66.5 µM (inactive)
